Laboratory results: patent publication US12049474B2, “Nucleoside prodrugs and uses related thereto” (Emory University, priority 2019, dated 2024)
Where two headings read alike, the source gives them in different places.

Columns and labels:
CYP3A4 = CYP3A4 (Homo sapiens (Human), UniProt P08684); test: Fluorometric CYP450 enzyme inhibition assay, CYP3A4; assay type: biochemical
Experimental: (§1) The CYP450 inhibition assays utilized microsomes from insect cells expressing human recombinant individual cDNA-expressed CYP isoforms 3A4 and 2D6, as well as the fluorogenic probe that produces fluorescent metabolite. Standard inhibitors were co-incubated with fluorogenic substrates and their inhibitory potential (IC50) was determined. Assay conditions in terms of CYP450 protein concentration and time of incubation were standardized, enzyme kinetics parameters of each fluorescent probe substrate were estimated and IC50 values of inhibitors were determined and validated on different days to check reproducibility.
(§2) A 100 mM sodium phosphate buffer was prepared and adjusted to pH 7.4. In a separate falcon tube, a 2× enzyme/substrate (E/S) solution was prepared in phosphate buffer. The final concentration of CYP2D6 (CORNING®) and […] (AMMC) was 10 nM and 4 μM, and CYP3A4 (CORNING®) and 7-benzyloxy-4-(trifluoromethyl) coumarin (BFC) was 20 nM and 40 μM, respectively. In a separate falcon tube, a 2×NADPH regenerating system (NRS) was prepared in phosphate buffer. The final concentration for each component in the assay was as follows: • CYP2D6 assay: 0.008 mM NADPH, 3.3 mM glucose 6-phosphate, 0.4 U of glucose-6-phosphate dehydrogenase per mL
Both enzymatic assays were conducted in a 96-well microtiter plate (Black, CORNING® COSTAR®) with a final volume of 100 μL. Preparation of the plate began with the addition of 74 μL of the E/S in the first well, and 50 μL to all subsequent wells (from 2-11). […] A 1:3 serial dilution of the test compound was conducted by removing 25 μL from the first well and diluting it with the second and so forth until the tenth row. Final concentrations yielded a range from 200 μM-0.01 μM. Well no. 11 contained no inhibitor, and well no. 12 contained no enzyme. Both were used as controls for background fluorescence. The plate was incubated for 30 min at 37° C. After incubation, the reaction was initiated by the addition of 50 μL of the 2×NRS to each well.
Immediately (within 1 min) the fluorescence was measured using a microplate reader (BIOTEK® Synergy Neo2). […] Data was exported and analyzed using Graph Pad Prism 7. […] The IC50 value was derived after the data was fitted on a 10-point curve using a four-parameter logistic regression model.

CYP2D6 = CYP2D6 (Homo sapiens (Human), UniProt P10635); test: biochemical; assay type: biochemical
Chain of CYP2D6 (P10635 whole entry): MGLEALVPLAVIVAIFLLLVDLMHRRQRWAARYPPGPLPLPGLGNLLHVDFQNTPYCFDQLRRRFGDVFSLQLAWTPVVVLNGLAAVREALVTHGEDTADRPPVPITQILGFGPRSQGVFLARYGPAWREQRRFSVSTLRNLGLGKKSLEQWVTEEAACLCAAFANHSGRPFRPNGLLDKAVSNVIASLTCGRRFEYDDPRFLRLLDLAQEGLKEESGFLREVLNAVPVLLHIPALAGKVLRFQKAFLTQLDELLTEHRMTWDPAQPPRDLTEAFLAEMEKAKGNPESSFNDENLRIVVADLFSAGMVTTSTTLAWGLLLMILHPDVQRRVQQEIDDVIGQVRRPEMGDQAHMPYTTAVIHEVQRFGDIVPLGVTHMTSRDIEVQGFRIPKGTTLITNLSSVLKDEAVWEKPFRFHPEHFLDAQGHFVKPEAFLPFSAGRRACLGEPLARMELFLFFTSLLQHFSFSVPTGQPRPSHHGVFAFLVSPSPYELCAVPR
Experimental: as §1, §2
Both enzymatic assays were conducted in a 96-well microtiter plate (Black, CORNING® COSTAR®) with a final volume of 100 μL. Preparation of the plate began with the addition of 74 μL of the E/S in the first well, and 50 μL to all subsequent wells (from 2-11). The test compounds (1 μL) were dissolved in the first well to give the first row a final volume of 75 μL. A 1:3 serial dilution of the test compound was conducted by removing 25 μL from the first well and diluting it with the second and so forth until the tenth row. Final concentrations yielded a range from 200 μM-0.01 μM. Well no. 11 contained no inhibitor, and well no. 12 contained no enzyme. Both were used as controls for background fluorescence. The plate was incubated for 30 min at 37° C. After incubation, the reaction was initiated by the addition of 50 μL of the 2×NRS to each well.
Immediately (within 1 min) the fluorescence was measured using a microplate reader (BIOTEK® Synergy Neo2). CYP2D6 was monitored at Ex/Em=410/460 nm, and CYP3A4 monitored at Ex/Em=410/538 nm in kinetic mode that scanned every 5 min for 60 mins. Data was exported and analyzed using Graph Pad Prism 7. […] The IC50 value was derived after the data was fitted on a 10-point curve using a four-parameter logistic regression model.

[1] = Metabolic stability assay in human liver microsomes (HLM); assay type: in vitro ADME; settings: pH 7.4, 3 μM test compound, NADPH, sampled 0-120 min, read-out: HLM t1/2
Experimental: The LC-MS/MS analysis was performed using Agilent 1260 Infinity II HPLC, coupled with an Agilent G6460 triple quadrupole mass spectrometer (Agilent Technologies, USA). All the data were acquired employing Agilent 6460 Quantitative Analysis data processing software.
Reverse-phase HPLC separation for each compound was achieved either on an Agilent Porshell 120 EC-C8 column (2.1×50 mm, 2.7 μm), or on an Agilent Zorbax XDB C18 column (2.1×50 mm, 3.5 μm) with a mobile phase composed of methanol-water-formic acid or acetonitrile-water-formic acid (0.1%) at a flow rate of 0.5 mL/min (changes for some compounds). Each method was developed in the presence of an internal standard (ISTD) d5-7-ethoxy coumarin. The column temperature was maintained at 40° C. for most of the samples otherwise noted. The detection was operated in the Agilent JetStream electrospray positive ionization using multiple reaction monitoring mode (MRM).
Other MS conditions were as follows: dwell time 100 ms; gas flow 10 L/min; nebulizer pressure 45 psi; delta EMV 200 V; fragmentor voltage and collision energy for individual compounds vary.
Test compounds were dissolved in 100% DMSO or 100% MeOH to make 10 mM stock solutions. Verapamil (Sigma Aldrich) aided as a positive control and was dissolved in 100% DMSO to make 10 mM stock solutions. The 10 mM stock solution of test and control compounds were further diluted in potassium phosphate buffer (100 mM, pH 7.4) to 500 μM to ensure the organic solvent content was <0.2%. Human liver microsomes (HLMs) were purchased from Xenotech at 20 mg/mL. NADPH (Sigma Aldrich) 10 mM stocks were prepared in deionized water.
The HLM assay was prepared in a 1.5 mL Eppendorf tube with a final volume of 1100 μL for duplicate runs. Each reaction contained phosphate buffer (928.4 μL), liver microsomes (55 μL), and test compound resulting in a final concentration of 3 μM (6.6 μL of 500 μM). The reaction was initiated with 110 μL of 10 mM NADPH. Aliquots (100 μL) were removed in duplicate at 0, 15, 30, 60, 120 min (for prodrug compounds) and 0, 5, 10, 15, 30 min (verapamil, positive control compound) time intervals and quenched in cold […] of 100% methanol which contained internal standard (ISTD: d5-7-ethoxy coumarin 4 μM). Before centrifugation each of the aliquoted tubes were vortexed to make sure compounds were in the solution. The aliquots were centrifuged at 12,000 g for 5 min and the supernatant removed and placed in an LC-MS vial. Each time point was assessed using LC-MS and the area, based on the extracted ion, was integrated with respect to the ISTD. Positive controls were conducted at a final volume of 550 μL to give each time point in a single run. A no-NADPH negative control with test or control compound was performed in a single run (150 μL) at the longest time point. Controls were processed and analyzed like the test compounds. Each time point was run in duplicates followed by in-between blank washes to avoid the carryover and to equilibrate the column.

[2] = human recombinant CYP3A4, BFC substrate, read-out: CYP450 IC50 3A4
[3] = human recombinant CYP2D6, AMMC substrate, read-out: CYP450 IC50 2D6

Chain of CYP3A4 (P08684 whole entry, canonical isoform): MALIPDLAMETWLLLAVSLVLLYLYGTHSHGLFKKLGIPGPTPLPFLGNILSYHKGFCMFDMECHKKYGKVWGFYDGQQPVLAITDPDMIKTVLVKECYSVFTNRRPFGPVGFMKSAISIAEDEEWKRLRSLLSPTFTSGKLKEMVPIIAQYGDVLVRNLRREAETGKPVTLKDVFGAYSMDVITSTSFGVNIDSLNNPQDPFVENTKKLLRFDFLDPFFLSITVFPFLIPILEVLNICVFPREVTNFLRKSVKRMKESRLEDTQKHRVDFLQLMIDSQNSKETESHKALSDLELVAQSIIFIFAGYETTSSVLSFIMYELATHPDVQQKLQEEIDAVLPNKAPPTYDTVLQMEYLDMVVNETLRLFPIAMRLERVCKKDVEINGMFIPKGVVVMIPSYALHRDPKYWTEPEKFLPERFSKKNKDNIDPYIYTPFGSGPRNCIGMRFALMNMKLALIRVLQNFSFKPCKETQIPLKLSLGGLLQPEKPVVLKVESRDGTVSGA

CCCCCCCCCCCCCCCCSCCCOP(=O)(O)CO[C@H](C)Cn1cnc2c(N)ncnc21 [MD-1-123, Ammonium 3-(hexadecylthio)propyl (R)-(((1-(6-amino-9H-purin-9-yl)propan-2-yl)oxy)methyl) phosphonate]
IC50 (CYP3A4; [2]): 58 µM | IC50 (CYP2D6; [3]): 110 µM | half-life at 3 µM [1]: 42 min

C#CCCCCCCCCCCCCCCSCCCOP(=O)(O)CO[C@H](C)Cn1cnc2c(N)ncnc21 [MD-1-182, Ammonium 3-(hexadec-15-yn-1-ylthio)propyl (R)-(((1-(6-amino-9H-purin-9-yl)propan-2-yl)oxy)methyl) phosphonate]
half-life at 3 µM [1]: 96 min

CCCCCCCCCCCCCCCOCCCCOP(=O)(O)COC(C)Cn1cnc2c(N)ncnc21.N (racemic) [NP-PD-150, Ammonium 4-pentadecoxybutoxy-[[rac-(1R)-2-(6-aminopurin-9-yl)-1-methyl-ethoxy]methyl]phosphinate]
half-life at 3 µM [1]: 48 min

C[C@H](Cn1cnc2c(N)ncnc21)OCP(=O)(O)OCCCSCCCCCCCCCCCOc1ccccc1.N [MD-1-223, Ammonium 3-((11-phenoxyundecyl)thio)propyl (R)-(((1-(6-amino-9H-purin-9-yl)propan-2-yl)oxy)methyl)phosphonate]
IC50 (CYP3A4; [2]): > 20 µM | IC50 (CYP2D6; [3]): > 20 µM | half-life at 3 µM [1]: 15 min

CCCCCCCCCCCCCCCCCCCCSCCCOP(=O)(O)CO[C@H](C)Cn1cnc2c(N)ncnc21.N [MD-1-186, Ammonium 3-(icosylthio)propyl (R)-(((1-(6-amino-9H-purin-9-yl)propan-2-yl)oxy)methyl)phosphonate]
half-life at 3 µM [1]: > 120 min

C[C@H](Cn1cnc2c(N)ncnc21)OCP(=O)(O)OCCCCCCCCCCCCCCCCCC[Si](C)(C)C.N [NP-PD-051, Ammonium [(1R)-2-(6-aminopurin-9-yl)-1-methyl-ethoxy]methyl-(18-trimethylsilyloctadecoxy)phosphinate]
IC50 (CYP3A4; [2]): 51.4 µM | IC50 (CYP2D6; [3]): 16.4 µM | half-life at 3 µM [1]: > 120 min

COC(=O)CCCCCCCCCCCCCCCSCCCOP(=O)(O)CO[C@H](C)Cn1cnc2c(N)ncnc21.N [MD-1-124, Ammonium 3-((16-methoxy-16-oxohexadecyl)thio)propyl (R)-(((1-(6-amino-9H-purin-9-yl)propan-2-yl)oxy)methyl)phosphonate]
IC50 (CYP3A4; [2]): 40.8 µM | IC50 (CYP2D6; [3]): 19.2 µM | half-life at 3 µM [1]: 36 min

C[C@H](Cn1cnc2c(N)ncnc21)OCP(=O)(O)OCCCSCCCCCCCCCCCCc1ccccc1.N [MD-1-184, Ammonium 3-((12-phenyldodecyl)thio)propyl (R)-(((1-(6-amino-9H-purin-9-yl)propan-2-yl)oxy)methyl)phosphonate]
IC50 (CYP2D6; [3]): > 20 µM | half-life at 3 µM [1]: 69 min

N.[2H]C([2H])([2H])C([2H])([2H])CCCCCCCCCCCCCOP(=O)(O)CO[C@H](C)Cn1cnc2c(N)ncnc21 [EJM-8-030, Ammonium pentadecyl-14,14,15,15,15-d5 (R)-(((1-(6-amino-9H-purin-9-yl)propan-2-yl)oxy)methyl)phosphonate]
IC50 (CYP3A4): 52.2 µM | IC50 (CYP2D6): 38.3 µM | half-life at 3 µM [1]: 20 min

CCCCCCCCCCCCCCCCCCSCCCOP(=O)(O)CO[C@H](C)Cn1cnc2c(N)ncnc21 [MD-1-185, Ammonium 3-(octadecylthio)propyl (R)-(((1-(6-amino-9H-purin-9-yl)propan-2-yl)oxy)methyl) phosphonate]
half-life at 3 µM [1]: > 120 min

CCCCCCCCCCCCCCCCCOCCOP(=O)(O)COC(C)Cn1cnc2c(N)ncnc21.N (racemic) [NP-PD-157, Ammonium 2-heptadecoxyethoxy-[[rac-(1R)-2-(6-aminopurin-9-yl)-1-methyl-ethoxy]methyl]phosphinate]
half-life at 3 µM [1]: 35 min

CCCCCCCCCCSCCCCCCCCCOP(=O)(O)CO[C@H](C)Cn1cnc2c(N)ncnc21.N [MD-1-122, Ammonium 9-(decylthio)nonyl (R)-(((1-(6-amino-9H-purin-9-yl)propan-2-yl)oxy)methyl)phosphonate]
half-life at 3 µM [1]: 13 min

CCCCSCCCCCCCCCCCCCCCOP(=O)(O)CO[C@H](C)Cn1cnc2c(N)ncnc21 [MD-1-221, Ammonium 15-(butylthio)pentadecyl (R)-(((1-(6-amino-9H-purin-9-yl)propan-2-yl)oxy)methyl) phosphonate]
IC50 (CYP3A4; [2]): > 20 µM | IC50 (CYP2D6; [3]): > 20 µM

N.[2H]C([2H])([2H])CCCCCCCCCCCCCCCOP(=O)(O)CO[C@H](C)Cn1cnc2c(N)ncnc21 [EJM-8-036, Ammonium hexadecyl-16,16,16-d3 (R)-(((1-(6-amino-9H-purin-9-yl)propan-2-yl)oxy)methyl)phosphonate]
IC50 (CYP3A4): 87.4 µM | IC50 (CYP2D6): 20.6 µM | half-life at 3 µM [1]: 21 min

CCCCCCCCCCCCCCOCCCCCOP(=O)(O)COC(C)Cn1cnc2c(N)ncnc21.N (racemic) [NP-PD-154, Ammonium [rac-(1R)-2-(6-aminopurin-9-yl)-1-methyl-ethoxy]methyl-(5-tetradecoxypentoxy)phosphinate]
half-life at 3 µM [1]: 29 min

C[C@H](Cn1cnc2c(N)ncnc21)OCP(=O)(O)OCCCSCCCCCCCCCCC#Cc1ccccc1.N [MD-1-183, Ammonium 3-((12-phenyldodec-11-yn-1-yl)thio)propyl (R)-(((1-(6-amino-9H-purin-9-yl)propan-2-yl)oxy)methyl)phosphonate]
IC50 (CYP2D6; [3]): > 20 µM | half-life at 3 µM [1]: 72 min

CCCCCCCCCCCCCSCCCCCCOP(=O)(O)CO[C@H](C)Cn1cnc2c(N)ncnc21 [MD-1-219, Ammonium 6-(tridecylthio)hexyl (R)-(((1-(6-amino-9H-purin-9-yl)propan-2-yl)oxy)methyl) phosphonate]
half-life at 3 µM [1]: 66 min
